Results on five molecules are retold here after patent US9689841B2, “Fluorescent pI markers for isoelectric focusing separations and fluorescent labeling” (The Texas A&M University System, priority 2011, dated 2017).

SMILES strings stand for the structures. Like-named read-outs stand apart in the source and are kept apart here.

One may read the pKa as the pH at which an ionisable group is half protonated.

For series [1] the following is noted: cited from earlier work.
Series [2] is described as follows: physchem.
Source text: (§1) An ampholytic compound dissolved in an aqueous buffer can be present in the solution either as a cationic, isoelectric or anionic species, depending on the pH of the solution. In the presence of a nonalternating electric field, the cationic or anionic species migrate electrophoretically toward the cathode or the anode, respectively. At a certain solution pH where the ampholyte becomes isoelectric, the net electrophoretic migration of its band becomes zero. The numeric value of this solution pH is equal to the pI value (isoelectric point) of the ampholyte. The pI value of an ampholyte is a material characteristic that is determined by the structure of the ampholyte (the types and pKa values of its weak and strong electrolyte functional groups). When the ampholyte contains a single acidic group (characterized by pKa^acid) and a single basic group (characterized by pKa^conjugate acid for this conjugate acid form), the pI value of the ampholyte can be calculated as pI=(pKa^acid+pKa^conjugate acid)/2. When an ampholyte contains two acidic groups (characterized by pKa^acid1 and pKa^acid2) and one basic group (characterized by pKa^conjugate acid for its conjugate acid form) with pKa^acid1<pKa^acid2<<pKa^conjugate acid, the pI of the ampholyte lies between pKa^acid1 and pKa^acid2 and is calculated as pI=(pKa^acid1 pKa^acid2)/2. In such cases, the acidic groups between which the pI lies are called the buffering groups, while the basic group is called the titrating group or charge balancing group. Similarly, when an ampholyte contains two basic groups (characterized by pKa^conjugate acid1 and pKa^conjugate acid2 for their conjugate acid forms) and one acidic group (characterized by pKa^acid) with pKa^acid<<pKa^conjugate acid1<pKa^conjugate acid2, the pI of the ampholyte lies between pKa^conjugate acid1 and pKa^conjugate acid2 and is calculated as pI=(pKa^conjugate acid1, pKa^conjugate acid2)/2. In such cases, the two basic groups between which the pI lies are called the buffering groups, while the acidic group is called the titrating group or charge balancing group. When the ampholyte contains multiple buffering groups and multiple titrating or charge balancing groups with relatively close pKa values, the charge contribution of each species needs to be evaluated in order to calculate the pI value.
The conditions of series [3]: from the two pKa values.
Source text: as §1
Setting [4] is: first (lower) of the two pKa values.
Where [5] appears, read: second (higher) of the two pKa values.

For the molecule `O=C(O)c1ccccc1C(=O)O` [1,2-benzenedicarboxylic acid], the pKa in series [1] (setting [4]) is 2.76; in series [1] (setting [5]), 4.92.

As to `O=C(O)c1ccc(C(=O)O)cc1` [1,4-benzenedicarboxylic acid], the pKa in series [1] (setting [4]) is 3.60; in series [1] (setting [5]) it was 4.50.

With `O=C(O)c1ccccn1` [pyridine-2-carboxylic acid], in series [2], the pKa amounted to 2.1. In series [3], this molecule yielded a pI of 3.105.

With `O=C(O)c1cccnc1` [pyridine-3-carboxylic acid], the pKa in series [2] amounted to 1.3. Further, the pI in series [3] was determined as 3.365.

Regarding `O=C(O)c1ccncc1` [pyridine-4-carboxylic acid], the pKa is 1.54 in series [2], 1.8 in series [1] (setting [4]) and 4.88 in series [1] (setting [5]). This molecule also displayed a pI in series [3] of 3.34.
